Read-outs that look alike come from different tables or passages of the source.
Columns and labels:
CDK4 = biological target: T1, CDK4 (Homo sapiens, UniProt P11802); assay: CDK4 percentage degradation in Calu-1 cells (immunoblotting); format: cell-based; details: for inhibition at 10 µM: read-out: CDK4 Degradation (10 μM); for inhibition at 0.2 µM: read-out: CDK4 Degradation (200 nM)
T1 construct: endogenous in cells; host or cells: Calu-1
Outline: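 CDK4 degradation was measured by immunoblotting. Cells were washed in cold PBS and lysed in RIPA buffer with inhibitors for 30 min at 4° C., then spun at 13,000 rpm to clear. After BCA protein determination, lysates were heated at 99° C. for 5 min in Laemmli buffer, resolved on SDS-PAGE, imaged on a ChemiDoc MP with ECL substrate, and band intensities quantified.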

cyclin D1 = assay: Cyclin D1 percentage degradation in Calu-1 cells (immunoblotting); format: cell-based; details: 16 hours
Outline: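 Cyclin D1 degradation was assessed by western blot. Clarified lysates, obtained by RIPA lysis with inhibitors and centrifugation at 13,000 rpm, were normalized by BCA protein assay and separated by SDS-PAGE. Bands were detected with Western ECL Substrate on a Bio-Rad ChemiDoc MP Imaging system and quantified in Image Lab software to derive percentage degradation.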

T1 sequence (P11802 2-303 limits assumed): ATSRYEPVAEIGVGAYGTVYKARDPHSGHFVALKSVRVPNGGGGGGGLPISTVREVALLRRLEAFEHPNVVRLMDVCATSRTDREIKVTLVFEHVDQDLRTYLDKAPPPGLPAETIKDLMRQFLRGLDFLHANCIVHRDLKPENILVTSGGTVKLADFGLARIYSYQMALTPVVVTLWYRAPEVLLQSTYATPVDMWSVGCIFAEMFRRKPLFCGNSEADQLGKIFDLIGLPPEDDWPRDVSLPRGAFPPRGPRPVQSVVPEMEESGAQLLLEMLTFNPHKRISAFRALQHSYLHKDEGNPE
T1 sequence (P24385 whole entry partner): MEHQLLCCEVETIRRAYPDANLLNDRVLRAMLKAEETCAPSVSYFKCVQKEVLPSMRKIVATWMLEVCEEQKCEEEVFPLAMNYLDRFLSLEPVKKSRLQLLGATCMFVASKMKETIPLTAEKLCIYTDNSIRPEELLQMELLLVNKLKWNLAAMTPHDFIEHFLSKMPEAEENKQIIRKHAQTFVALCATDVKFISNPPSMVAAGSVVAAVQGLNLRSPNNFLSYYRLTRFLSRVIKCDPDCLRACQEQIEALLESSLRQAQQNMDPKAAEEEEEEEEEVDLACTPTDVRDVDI
T1 sequence (Q16531 2-1140 limits assumed, further chain): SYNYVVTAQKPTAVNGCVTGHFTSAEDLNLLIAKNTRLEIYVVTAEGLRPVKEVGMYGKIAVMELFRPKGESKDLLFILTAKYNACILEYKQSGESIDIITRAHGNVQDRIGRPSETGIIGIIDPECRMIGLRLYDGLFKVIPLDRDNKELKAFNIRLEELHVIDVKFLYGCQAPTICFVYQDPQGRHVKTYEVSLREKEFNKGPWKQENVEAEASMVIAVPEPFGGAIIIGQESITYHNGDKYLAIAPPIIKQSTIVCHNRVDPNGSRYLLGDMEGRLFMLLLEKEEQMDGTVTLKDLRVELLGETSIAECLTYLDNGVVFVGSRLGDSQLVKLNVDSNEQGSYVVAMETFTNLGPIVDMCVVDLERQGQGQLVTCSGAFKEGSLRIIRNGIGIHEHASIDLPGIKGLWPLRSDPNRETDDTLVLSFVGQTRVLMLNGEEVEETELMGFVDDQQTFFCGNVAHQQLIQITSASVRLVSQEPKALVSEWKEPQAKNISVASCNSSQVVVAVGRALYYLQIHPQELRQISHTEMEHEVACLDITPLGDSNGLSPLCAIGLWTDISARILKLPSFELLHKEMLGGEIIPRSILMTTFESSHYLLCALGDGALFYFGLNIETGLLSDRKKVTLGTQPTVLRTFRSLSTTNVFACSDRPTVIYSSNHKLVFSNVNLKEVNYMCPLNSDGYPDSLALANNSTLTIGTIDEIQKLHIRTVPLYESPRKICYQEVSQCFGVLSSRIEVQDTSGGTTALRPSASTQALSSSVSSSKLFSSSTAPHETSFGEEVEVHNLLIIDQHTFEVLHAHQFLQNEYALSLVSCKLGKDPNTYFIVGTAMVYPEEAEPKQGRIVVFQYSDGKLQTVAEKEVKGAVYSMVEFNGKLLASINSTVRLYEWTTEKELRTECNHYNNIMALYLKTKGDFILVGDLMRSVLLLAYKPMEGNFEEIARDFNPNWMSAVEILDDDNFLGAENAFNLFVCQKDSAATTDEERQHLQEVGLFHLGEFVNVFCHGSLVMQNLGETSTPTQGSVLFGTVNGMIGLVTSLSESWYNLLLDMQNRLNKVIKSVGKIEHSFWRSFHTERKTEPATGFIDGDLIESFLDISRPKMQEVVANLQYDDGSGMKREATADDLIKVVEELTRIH

| SMILES | inhibition at 10 µM (CDK4; Calu-1 cells, 16 hours) | CyclinD1 Degradation (10 μM) (cyclin D1) | inhibition at 0.2 µM (CDK4; Calu-1, 16 h) | CyclinD1 Degradation (200 nM) (cyclin D1) | inhibition at 0.2 µM (CDK4; Calu-1 cells, 200 nM, 16 hours) |
| --- | --- | --- | --- | --- | --- |
| Cc1nc(NC(=O)c2ccccc2NC(=O)CCOCCNC(=O)CN2CCN(c3ccc(Nc4ncc5cc6n(c5n4)C4(CCCCC4)CNC6=O)nc3)CC2)sc1C [CPD-322, N-(4,5-Dimethylthiazol-2-yl)-2-(3-(2-(2-(4-(6-((6′-oxo-7′,8′-dihydro-6′H-spiro[cyclohexane-1,9′-pyrazino[1′,2′:1,5]pyrrolo[2,3-d]pyrimidin]-2′-yl)amino)pyridin-3-yl)piperazin-1-yl)acetamido)ethoxy)propanamido)benzamide] | 50 to 80% | A (protein percentage degradation >= 80%) |  |  |  |
| CC(=O)c1c(C)c2cnc(Nc3ccc(N4CCN(CC(=O)NCCC(=O)Nc5ccccc5C(=O)Nc5nc(C)c(C)s5)CC4)cn3)nc2n(C2CCCC2)c1=O [CPD-146, 2-(3-(2-(4-(6-((6-Acetyl-8-cyclopentyl-5-methyl-7-oxo-7,8-dihydropyrido[2,3-d]pyrimidin-2-yl)amino)pyridin-3-yl)piperazin-1-yl)acetamido)propanamido)-N-(4,5-dimethylthiazol-2-yl)benzamide] |  |  | < 30% | D (protein percentage degradation <30%) |  |
| CC(=O)c1c(C)c2cnc(Nc3ccc(N4CCN(C(=O)CCCNc5ccc(C)c(C(=O)Nc6nc(C)c(C)s6)c5)CC4)cn3)nc2n(C2CCCC2)c1=O [CPD-165, 5-((4-(4-(6-((6-Acetyl-8-cyclopentyl-5-methyl-7-oxo-7,8-dihydropyrido[2,3-d]pyrimidin-2-yl)amino)pyridin-3-yl)piperazin-1-yl)-4-oxobutyl)amino)-N-(4,5-dimethylthiazol-2-yl)-2-methylbenzamide] |  |  | < 30% | D (protein percentage degradation <30%) |  |
| CC(=O)c1c(C)c2cnc(Nc3ccc(N4CCN(CC(=O)NCCOCCOCCC(=O)Nc5ccccc5C(=O)Nc5ccc(C6CC6)cn5)CC4)cn3)nc2n(C2CCCC2)c1=O [CPD-184, 2-(3-(2-(2-(2-(4-(6-((6-Acetyl-8-cyclopentyl-5-methyl-7-oxo-7,8-dihydropyrido[2,3-d]pyrimidin-2-yl)amino)pyridin-3-yl)piperazin-1-yl)acetamido)ethoxy)ethoxy)propanamido)-N-(5-cyclopropylpyridin-2-yl)benzamide] |  |  |  | A (protein percentage degradation >=80%) | 50 to 80% |
| CC(=O)c1c(C)c2cnc(Nc3ccc(N4CCN(CC(=O)NCCCCCNc5ccc(C)c(C(=O)Nc6nc(C)c(C)s6)c5)CC4)cn3)nc2n(C2CCCC2)c1=O [CPD-116, 5-((5-(2-(4-(6-((6-Acetyl-8-cyclopentyl-5-methyl-7-oxo-7,8-dihydropyrido[2,3-d]pyrimidin-2-yl)amino)pyridin-3-yl)piperazin-1-yl)acetamido)pentyl)amino)-N-(4,5-dimethylthiazol-2-yl)-2-methylbenzamide] |  |  |  | D (protein percentage degradation <30%) | < 30% |
| Cc1nc(NC(=O)c2ccccc2NC(=O)CCOCCOCCNC(=O)CN2CCN(c3ccc(Nc4ncc(F)c(-c5cc(F)c6nc(C)n(C(C)C)c6c5)n4)nc3)CC2)sc1C [CPD-309, N-(4,5-Dimethylthiazol-2-yl)-2-(3-(2-(2-(2-(4-(6-((5-fluoro-4-(4-fluoro-1-isopropyl-2-methyl-1H-benzo[d]imidazol-6-yl)pyrimidin-2-yl)amino)pyridin-3-yl)piperazin-1-yl)acetamido)ethoxy)ethoxy)propanamido)benzamide] | 30 to 50% | D (protein percentage degradation < 30%) |  |  |  |
| CC(=O)c1c(C)c2cnc(Nc3ccc(N4CCN(C(=O)CCOCCNc5ccc(C)c(C(=O)Nc6nc(C)c(C)s6)c5)CC4)cn3)nc2n(C2CCCC2)c1=O [CPD-110, 5-((2-(3-(4-(6-((6-Acetyl-8-cyclopentyl-5-methyl-7-oxo-7,8-dihydropyrido[2,3-d]pyrimidin-2-yl)amino)pyridin-3-yl)piperazin-1-yl)-3-oxopropoxy)ethyl)amino)-N-(4,5-dimethylthiazol-2-yl)-2-methylbenzamide] |  |  | < 30% | D (protein percentage degradation <30%) |  |
| CC(=O)c1c(C)c2cnc(Nc3ccc(N4CCN(CC(=O)NCCOCCOCCC(=O)Nc5ccccc5C(=O)Nc5nc(Br)c(C)s5)CC4)cn3)nc2n(C2CCCC2)c1=O [CPD-071, 2-(3-(2-(2-(2-(4-(6-((6-Acetyl-8-cyclopentyl-5-methyl-7-oxo-7,8-dihydropyrido[2,3-d]pyrimidin-2-yl)amino)pyridin-3-yl)piperazin-1-yl)acetamido)ethoxy)ethoxy)propanamido)-N-(4-bromo-5-methylthiazol-2-yl)benzamide] |  |  |  | A (protein percentage degradation >=80%) | > 80% |
| CC(=O)c1c(C)c2cnc(Nc3ccc(N4CCN(CC(=O)NCCCCC(=O)Nc5ccccc5C(=O)Nc5nc(C)c(C)s5)CC4)cn3)nc2n(C2CCCC2)c1=O [CPD-174, 2-(5-(2-(4-(6-((6-Acetyl-8-cyclopentyl-5-methyl-7-oxo-7,8-dihydropyrido[2,3-d]pyrimidin-2-yl)amino)pyridin-3-yl)piperazin-1-yl)acetamido)pentanamido)-N-(4,5-dimethylthiazol-2-yl)benzamide] |  |  |  | A (protein percentage degradation >=80%) | > 80% |
| Cc1nc(NC(=O)c2ccccc2NC(=O)CCCCCCCNC(=O)CN2CCN(c3ccc(Nc4ncc5cc6n(c5n4)C4(CCCCC4)CNC6=O)nc3)CC2)sc1C [CPD-320, N-(4,5-Dimethylthiazol-2-yl)-2-(8-(2-(4-(6-((6′-oxo-7′,8′-dihydro-6′H-spiro[cyclohexane-1,9′-pyrazino[1′,2′:1,5]pyrrolo[2,3-d]pyrimidin]-2′-yl)amino)pyridin-3-yl)piperazin-1-yl)acetamido)octanamido)benzamide] | 50 to 80% | A (protein percentage degradation >= 80%) |  |  |  |
| CC(=O)c1c(C)c2cnc(Nc3ccc(N4CCN(CC(=O)NCCOCCOCCC(=O)Nc5ccccc5C(=O)Nc5ccc(Cl)cn5)CC4)cn3)nc2n(C2CCCC2)c1=O [CPD-082, 2-(3-(2-(2-(2-(4-(6-((6-Acetyl-8-cyclopentyl-5-methyl-7-oxo-7,8-dihydropyrido[2,3-d]pyrimidin-2-yl)amino)pyridin-3-yl)piperazin-1-yl)acetamido)ethoxy)ethoxy)propanamido)-N-(5-chloropyridin-2-yl)benzamide] |  |  |  | A (protein percentage degradation >=80%) | > 80% |
| CC(=O)c1c(C)c2cnc(Nc3ccc(N4CCN(CC(=O)NCCOCCC(=O)Nc5ccccc5C(=O)Nc5nc(C)c(C)s5)CC4)cn3)nc2n(C2CCCC2)c1=O [CPD-147, 2-(3-(2-(2-(4-(6-((6-Acetyl-8-cyclopentyl-5-methyl-7-oxo-7,8-dihydropyrido[2,3-d]pyrimidin-2-yl)amino)pyridin-3-yl)piperazin-1-yl)acetamido)ethoxy)propanamido)-N-(4,5-dimethylthiazol-2-yl)benzamide] |  |  |  | D (protein percentage degradation <30%) | < 30% |
| CC(=O)c1c(C)c2cnc(Nc3ccc(N4CCN(CC(=O)NCCOCCOCCOCCOCCOCCNC(=O)CNc5ccc(C(=O)Nc6ncc(C)s6)c(C)c5)CC4)cn3)nc2n(C2CCCC2)c1=O [CPD-014, 4-((23-(4-(6-((6-Acetyl-8-cyclopentyl-5-methyl-7-oxo-7,8-dihydropyrido[2,3-d]pyrimidin-2-yl)amino)pyridin-3-yl)piperazin-1-yl)-2,22-dioxo-6,9,12,15,18-pentaoxa-3,21-diazatricosyl)amino)-2-methyl-N-(5-methylthiazol-2-yl)benzamide] |  |  |  | D (protein percentage degradation <30%) | < 30% |
| CC(=O)c1c(C)c2cnc(Nc3ccc(N4CCN(C(=O)CCCCCCCCC(=O)Nc5ccccc5C(=O)Nc5nc(C)c(C)s5)CC4)cn3)nc2n(C2CCCC2)c1=O [CPD-162, 2-(10-(4-(6-((6-Acetyl-8-cyclopentyl-5-methyl-7-oxo-7,8-dihydropyrido[2,3-d]pyrimidin-2-yl)amino)pyridin-3-yl)piperazin-1-yl)-10-oxodecanamido)-N-(4,5-dimethylthiazol-2-yl)benzamide] |  |  | < 30% | C (protein percentage degradation <50%, and >=30%) |  |
| CC(=O)c1c(C)c2cnc(Nc3ccc(N4CCN(C(=O)CCOCCOCCOCCOCCOCCOCCNc5ccc(C)c(C(=O)Nc6nc(C)c(C)s6)c5)CC4)cn3)nc2n(C2CCCC2)c1=O [CPD-131, 5-((21-(4-(6-((6-Acetyl-8-cyclopentyl-5-methyl-7-oxo-7,8-dihydropyrido[2,3-d]pyrimidin-2-yl)amino)pyridin-3-yl)piperazin-1-yl)-21-oxo-3,6,9,12,15,18-hexaoxahenicosyl)amino)-N-(4,5-dimethylthiazol-2-yl)-2-methylbenzamide] |  |  | < 30% | D (protein percentage degradation <30%) |  |
| CC(=O)c1c(C)c2cnc(Nc3ccc(N4CCN(C(=O)CCOCCOCCOCCOCCOCCOCCC(=O)Nc5ccccc5C(=O)Nc5nc(C)c(C)s5)CC4)cn3)nc2n(C2CCCC2)c1=O [CPD-182, 22-(4-(6-((6-Acetyl-8-cyclopentyl-5-methyl-7-oxo-7,8-dihydropyrido[2,3-d]pyrimidin-2-yl)amino)pyridin-3-yl)piperazin-1-yl)-N-(2-((4,5-dimethylthiazol-2-yl)carbamoyl)phenyl)-22-oxo-4,7,10,13,16,19-hexaoxadocosanamide] |  |  | < 30% | D (protein percentage degradation <30%) |  |
